For experiment [1], the system named is IL1RL-1 mRNA expression. In words: Northern blot of IL1RL-1 (T1/ST2) mRNA induction in cultured neonatal rat cardiac myocytes, with or without 8% cyclic mechanical strain. Type of experiment: cell-based. The settings on record: for effect on the induction of IL1RL-1 mRNA expression by 8% mechanical strain: FIG. 4, applied during strain, actinomycin D 5 μg/ml (2 and 4 hours), cyclohexamide 10 μg/ml; for induction of IL1RL-1 mRNA expression in the absence of mechanical strain: FIG. 2, 3 hours, Ang II 50 nM; for induction of IL1RL-1 mRNA expression in the absence of mechanical strain / rank order potency for the induction of IL1RL-1 mRNA expression / induction of IL1RL-1 mRNA expression by the agent alone: IL-1β 10 ng/ml; for induction of IL1RL-1 mRNA expression in the absence of mechanical strain / rank order potency for the induction of T1/ST2 mRNA expression: PMA 200 nM; for rank order potency for the induction of IL1RL-1 mRNA expression: PMA 100 ng/ml, 8% strain; for induction of IL1RL-1 mRNA expression by the agent alone: PMA 100 ng/ml in the absence of strain; for rank order potency for the induction of T1/ST2 mRNA expression: strain 8%, 1 and 3 hours. From the text:
The approach to mechanical stimulation used an apparatus that has multiple platens that contact the underside of silicone elastomer membranes to apply a spatially isotropic biaxial strain profile to the membrane (Schaffer J L, et al., J Orthop Res, 1993, 12:709-719; and U.S. Provisional Patent application 60/144,134 filed on Jul. 16, 1999 entitled “AN APPARATUS FOR STUDYING MYOCARDIAL MECHANICAL OVERLOAD HYPERTROPHY AND USES THEREFOR, by Richard T. Lee. Six individual 78 mm membranes can be stretched at once with varying amplitudes of strain by controlling displacement of each platen with a stepper motor. Measured Green strains are accurate to ˜±0.25% at strains from 1-14% (Cheng G C, et al., Circ Res, 1997, 80:28-36; Brown T D, J Biomechanics, 2000, 33:3-14). Throughout this study, 8% biaxial strain was used.
Neonatal rat ventricular myocytes (NRVM) from 1-day old Sprague-Dawley rats were isolated by previously described methods (Springhorn J P, and Claycomb W C., Biochem J, 1989; 258:73-78; Arstall M A, et al., J Mol Cell Cardiol, 1998, 30:1019-25). NRVM were plated on the coated membrane dish at a density of 2,000,000 cells/dish in DMEM containing 7% FCS and incubated 24 h. Approximate cell confluence was 85-90%. NRVM were then made quiescent by washing with 10 ml of Hanks' balanced salt solution (HBSS, 138 mM NaCl, 5.3 mM KCl, 4.0 mM NaHCO3, 1.3 mM CaCl2, 0.5 mM MgCl2, 0.4 mM MgSO4, 0.4 mM KH2PO4, 0.3 mM Na2HPO4, 5.6 mM glucose; Life Technologies, Inc., Rockville, Md.) twice and incubating with 26 ml of DMEM containing 0.2% FCS for 48-72 hours.
The cDNA clones for differentially expressed genes were obtained by PCR using the GenBank sequences. Each clone was sequenced from both 5′ and 3′ ends to confirm identity. Positive elements in the DNA microarray were confirmed by Northern blot hybridization analysis in at least three independent experiments using three different sources of NRVMs. Total RNA was isolated by the guanidium thiocyanate and phenol chloroform method (Chomcyznski, et al., Anal. Biochem., 1987, 162:156-159). For Northern blotting, 15 μg RNA was loaded on a 1.0% agarose-formaldehyde gel (2.0 mol/l), transferred to a nylon membrane (Amersham Pharmacia Biotech AB, Piscataway, N.J.), and UV cross-linked with a UV Stratalinker (Stratagene, Inc., La Jolla, Calif.). Each probe was hybridized with ExpressHyb solution (Clontech Labs., Inc., Palo Alto, Calif.) at 68° C. for 1 hour. The membrane was washed with 2×SSC, 0.05% SDS solution for 30 to 40 minutes and three times at room temperature and 0.1×SSC, 0.1% SDS solution with continuous shaking at 50° C. for 40 minutes. The membrane was exposed to film at −80° C., and radiographs were scanned and analyzed with Optimas 5.0 software (Optimas Co./Media Cybernetics, Silver Springs, Md.). Densitometric units were normalized to the ethidium-stained 28S ribosomal subunit on the membrane.
T1/ST2 mRNA is induced by mechanical strain in cultured neonatal cardiac myocytes. Neonatal rat ventricular myocytes were isolated by collagenase digestion, plated on fibronectin-coated silicone membrane dishes at a density of 3.5 million cells/dish in 13 ml media as previously described (Yamamoto K, et al. J Biol. Chem. 1999; 274:21840-21846). This technique yields cultures with ≧95% myocytes. Mechanical deformation was applied using a device that provides uniform biaxial cyclic strain as previously described (Yamamoto K, et al. J Biol. Chem. 1999; 274:21840-21846). RNA was extracted (Qiagen) and Northern blotting was performed using as a probe a ^32P-labelled 600 bp PCR fragment specific to rat T1/ST2. Maximal induction occurs at 3 hours, is sustained for 9 hours and declines by 15 hours. […]

The subject of experiment [2] is T1/ST2 mRNA. In words: T1/ST2 mRNA induction in human adult vascular smooth muscle cells. In kind it is cell-based.

“Also recorded” adds a separate entry of the source. Starred links: 1 amine or outer side, 2 acyl side, 3 side chain; linkers in the order of their positions; H or OH if unused. Positions of bridges follow the written chain, without caps; N, C: chain ends. Non-standard residues stand in square brackets, D forms with d. Residues, ends and D or L forms follow the SMILES beside them. Chains are numbered I, II in the order given. Actinocin(9to1) = Cc1c2oc3c(C)ccc(C(=O)[*:1])c3nc-2c(C(=O)[*:2])c(N)c1=O; NMeV = CN[C@H](C(=O)O)C(C)C; Sar = CNCC(=O)O

With `Cc1c2oc3c(C)ccc(C(=O)N[C@@H]4C(=O)N[C@H](C(C)C)C(=O)N5CCC[C@H]5C(=O)N(C)CC(=O)N(C)[C@@H](C(C)C)C(=O)O[C@@H]4C)c3nc-2c(C(=O)N[C@@H]2C(=O)N[C@H](C(C)C)C(=O)N3CCC[C@H]3C(=O)N(C)CC(=O)N(C)[C@@H](C(C)C)C(=O)O[C@@H]2C)c(N)c1=O` [Actinomycin D, actinomycin D] (I: T[dV]P[Sar][NMeV] / II: T[dV]P[Sar][NMeV]; ester I:1-I:C, II:1-II:C; linker I:N-II:N via Actinocin(9to1)), the “effect on the induction of IL1RL-1 mRNA expression by 8% mechanical strain” value in experiment [1] is given as “blocked the induction”.

Take `OO` [H2O2, hydrogen peroxide]: in experiment [1] (FIG. 3, 8% mechanical strain, H2O2 100 uM), the “effect on the strain-induced induction of IL1RL-1” value is reported as “blocks the strain-induced induction”. Also, the “induction of IL1RL-1 in the absence of strain” value in experiment [1] (FIG. 3, H2O2 100 uM) is recorded as “does not induce”.

For `CCCCCCCCCCCCCC(=O)O[C@@H]1[C@@H](C)[C@@]2(O)[C@@H](C=C(CO)C[C@]3(O)C(=O)C(C)=C[C@@H]23)[C@@H]2C(C)(C)[C@]12OC(C)=O` [PMA], the “induction of IL1RL-1 mRNA expression in the absence of mechanical strain” value (from here on “induction … of mechanical strain”) in experiment [1] is recorded as “associated with an induction”. In experiment [1] (FIG. 5), the “rank order potency for the induction of IL1RL-1 mRNA expression” value is reported as “PMA>strain>IL-1β” and the “induction of IL1RL-1 mRNA expression by the agent alone” value is recorded as “strongest induction”. Besides, the “rank order potency for the induction of T1/ST2 mRNA expression” value in experiment [1] (FIG. 9, interleukin-1 10 ng/ml) was “PMA>strain>interleukin-1β; also recorded: PMA>strain>IL-1”. The “induction of T1/ST2 mRNA” value in experiment [2] is “not”.

As to `O=S(=O)(O)c1cc(O)c(O)c(S(=O)(=O)O)c1` [TIRON], in experiment [1] (FIG. 3, TIRON 10 mM), the “mRNA expression of IL1RL-1 in the absence and presence of strain” value is reported as “slightly attenuated”.

Take `C[C@@H]1C[C@@H]([C@H](O)CC2CC(=O)NC(=O)C2)C(=O)[C@@H](C)C1` [cyclohexamide]: the “effect on the induction of IL1RL-1 mRNA expression by 8% mechanical strain” value in experiment [1] is listed as “blocked the induction”.

Take angiotensin II: the “induction … of mechanical strain” value in experiment [1] is reported as “did not induce”.

In the case of interleukin-1β [IL-1β], in experiment [1], the “induction of T1/ST2 RNA in cardiac myocytes” value is on record as “induce T1/ST2 RNA” and the “induction … of mechanical strain” value is “associated with an induction”. The “induction of IL1RL-1 by mechanical strain in the presence of IL-1β” value in experiment [1] (FIG. 5, 8% strain plus IL-1β 10 ng/ml) is “not further increased”. In experiment [1] (FIG. 5), the “rank order potency for the induction of IL1RL-1 mRNA expression” value was “PMA>strain>IL-1β” and the “induction of IL1RL-1 mRNA expression by the agent alone” value is recorded as “induced”. For the same compound, the “induction of T1/ST2 by mechanical strain in the presence of interleukin-1β” value in experiment [1] (FIG. 9, 8% strain plus interleukin-1 10 ng/ml) is recorded as “not further increased”. For the same compound, the “rank order potency for the induction of T1/ST2 mRNA expression” value in experiment [1] (FIG. 9, interleukin-1 10 ng/ml) is “PMA>strain>interleukin-1β”. In addition, the “rank order potency for the induction of T1/ST2 mRNA expression” value in experiment [1] (FIG. 9, interleukin-1 10 ng/ml, listed as IL-1) is listed as “PMA>strain>IL-1”. Moreover, in experiment [1] (FIG. 10, interleukin-1 10 ng/ml, 4 hours), the “induction of T1/ST2 mRNA in the presence of infection with control adenovirus” value is on record as “induced T1/ST2 mRNA”. Moreover, the “induction of T1/ST2 mRNA” value in experiment [2] is “induced”.
